Columns and labels:
[1] = tested on: Jurkat; assay: Induction of cell cycle arrest in human Jurkat cells assessed as accumulation at G2/G1 phase at 400 nM after 24 hrs by Guava Cell Cycle reagent based flow cytometric analysis relative to control; type: functional
[2] = tested on: Jurkat; assay: Induction of cell cycle arrest in human Jurkat cells assessed as accumulation at G2 phase at 400 nM after 24 hrs by Guava Cell Cycle reagent based flow cytometric analysis relative to control; type: functional
[3] = tested on: Jurkat; assay: Induction of cell cycle arrest in human Jurkat cells assessed as accumulation at G1 phase at 200 nM after 24 hrs by Guava Cell Cycle reagent based flow cytometric analysis relative to control; type: functional
[4] = tested on: Jurkat; assay: Induction of apoptosis in human Jurkat cells assessed as late apoptotic cells at 200 nM after 24 hrs by Annexin V/7-AAD staining.based flow cytometric analysis relative to control; type: functional
[5] = tested on: Jurkat; assay: Induction of apoptosis in human Jurkat cells assessed as early apoptotic cells at 100 nM after 24 hrs by Annexin V/7-AAD staining.based flow cytometric analysis relative to control; type: functional
[6] = tested on: Jurkat; assay: Induction of cell cycle arrest in human Jurkat cells assessed as accumulation at G2 phase at 50 nM after 24 hrs by Guava Cell Cycle reagent based flow cytometric analysis relative to control; type: functional
[7] = tested on: Jurkat; assay: Induction of apoptosis in human Jurkat cells assessed as viable cells at 50 nM after 24 hrs by Annexin V/7-AAD staining.based flow cytometric analysis relative to control; type: functional; details: read-out: Activity
[8] = tested on: Jurkat; assay: Induction of cell cycle arrest in human Jurkat cells assessed as accumulation at sub-G1 phase at 50 nM after 24 hrs by Guava Cell Cycle reagent based flow cytometric analysis relative to control; type: functional
[9] = tested on: Jurkat; assay: Induction of ROS generation in human Jurkat cells at 200 nM after 2 hrs by MitoSox Red/annexin V-CF488A staining based flow cytometric analysis relative to control; type: functional
[10] = tested on: Jurkat; assay: Induction of apoptosis in human Jurkat cells assessed as necrotic cells at 200 nM after 24 hrs by Annexin V/7-AAD staining.based flow cytometric analysis relative to control; type: functional
[11] = tested on: Jurkat; assay: Induction of apoptosis in human Jurkat cells assessed as viable cells at 400 nM after 24 hrs by Annexin V/7-AAD staining.based flow cytometric analysis relative to control; type: functional; details: read-out: Activity
[12] = tested on: Jurkat; assay: Induction of apoptosis in human Jurkat cells assessed as necrotic cells at 100 nM after 24 hrs by Annexin V/7-AAD staining.based flow cytometric analysis relative to control; type: functional
[13] = tested on: Jurkat; assay: Induction of cell cycle arrest in human Jurkat cells assessed as accumulation at G2 phase at 100 nM after 24 hrs by Guava Cell Cycle reagent based flow cytometric analysis relative to control; type: functional
[14] = tested on: Jurkat; assay: Induction of cell cycle arrest in human Jurkat cells assessed as accumulation at S phase at 200 nM after 24 hrs by Guava Cell Cycle reagent based flow cytometric analysis relative to control; type: functional
[15] = tested on: Jurkat; assay: Induction of mitochondrial membrane potential loss in human Jurkat cells after 4 hrs by flow cytometric analysis; type: functional, cell-based
[16] = tested on: Jurkat; assay: Induction of cell cycle arrest in human Jurkat cells assessed as accumulation at S phase at 400 nM after 24 hrs by Guava Cell Cycle reagent based flow cytometric analysis relative to control; type: functional
[17] = Effect on total STAT5 level in human jurkat cells at 400 nM by magnetic bead based immunoassay; type: cell-based; details: 0.4 µM
[18] = Effect on total p38 level in human jurkat cells at 400 nM by magnetic bead based immunoassay; type: cell-based; details: 0.4 µM
[19] = tested on: Jurkat; assay: Induction of apoptosis in human Jurkat cells assessed as viable cells at 100 nM after 24 hrs by Annexin V/7-AAD staining.based flow cytometric analysis relative to control; type: functional; details: read-out: Activity
[20] = tested on: Jurkat; assay: Induction of apoptosis in human Jurkat cells assessed as viable cells at 200 nM after 24 hrs by Annexin V/7-AAD staining.based flow cytometric analysis relative to control; type: functional; details: read-out: Activity
[21] = tested on: Jurkat; assay: Induction of mitochondrial membrane potential loss in human Jurkat cells assessed as late apoptotic cells at 400 nM after 4 hrs by MitoSense Red/7-AAD. flow cytometric analysis relative to control; type: functional
[22] = tested on: Jurkat; assay: Induction of ROS generation in human Jurkat cells assessed as living undamaged cells at 200 nM after 24 hrs by MitoSox Red/annexin V-CF488A staining based flow cytometric analysis (reference value: 95.44%); type: functional
[23] = tested on: Jurkat; assay: Induction of apoptosis in human Jurkat cells assessed as early apoptotic cells at 400 nM after 24 hrs by Annexin V/7-AAD staining.based flow cytometric analysis relative to control; type: functional
[24] = tested on: Jurkat; assay: Induction of cell cycle arrest in human Jurkat cells assessed as accumulation at sub-G1 phase at 100 nM after 24 hrs by Guava Cell Cycle reagent based flow cytometric analysis relative to control; type: functional
[25] = tested on: Jurkat; assay: Induction of cell cycle arrest in human Jurkat cells assessed as accumulation at super-G2 phase at 50 nM after 24 hrs by Guava Cell Cycle reagent based flow cytometric analysis relative to control; type: functional
[26] = tested on: Jurkat; assay: Induction of mitochondrial membrane potential loss in human Jurkat cells assessed as early apoptotic cells at 200 nM after 4 hrs by MitoSense Red/7-AAD. flow cytometric analysis relative to control; type: functional
[27] = tested on: K562; assay: Cytotoxicity against human K562 cells assessed as reduction in cell viability by 7-AAD staining based flow cytometric analysis; type: functional
[28] = tested on: Jurkat; assay: Induction of apoptosis in human Jurkat cells assessed as late apoptotic cells at 50 nM after 24 hrs by Annexin V/7-AAD staining.based flow cytometric analysis relative to control; type: functional
[29] = tested on: Jurkat; assay: Induction of ROS generation in human Jurkat cells assessed as apoptotic cells at 200 nM after 4 hrs by MitoSox Red/annexin V-CF488A staining based flow cytometric analysis (reference value: 3.18%); type: functional
[30] = tested on: Jurkat; assay: Induction of ROS generation in human Jurkat cells assessed as apoptotic cells at 200 nM after 24 hrs by MitoSox Red/annexin V-CF488A staining based flow cytometric analysis (reference value: 3.18%); type: functional
[31] = tested on: Jurkat; assay: Induction of cell cycle arrest in human Jurkat cells assessed as accumulation at G1 phase at 100 nM after 24 hrs by Guava Cell Cycle reagent based flow cytometric analysis relative to control; type: functional
[32] = Effect on total NFKappaB level in human jurkat cells at 400 nM by magnetic bead based immunoassay; type: cell-based; details: 0.4 µM

Which results are given for `C#C[C@H](O)CCCCCCCCC/C=C\CC/C=C\CC/C=C\CCCCCCCCCCCCCCCC`?
Activity [1]: 1.93%; Activity [2]: 7.68%; Activity [3]: 33.86%; Activity [4]: 43.15%; Activity [5]: 12.63%; Activity [6]: 5.09%; viability at 0.05 µM [7]: 59.8%; Activity [8]: 10.76%; Activity [9]: 25.4%; Activity [10]: 7.51%; viability at 0.4 µM [11]: 32.9%; Activity [12]: 5.89%; Activity [13]: 7.28%; Activity [14]: 28.57%; Activity [15]: Dose-dependent effect; Activity [16]: 31.5%; Activity [17]: Toxic; Activity [18]: Toxic; viability at 0.1 µM [19]: 41.7%; viability at 0.2 µM [20]: 36.1%; Activity [21]: 2.87%; Activity [22]: 33.64%; Activity [23]: 15.86%; Activity [24]: 13.99%; Activity [25]: 1.35%; Activity [26]: 0.9%; IC50 [27]: 373 nM; Activity [28]: 23.53%; Activity [29]: 3.67%; Activity [30]: 45.78%; Activity [31]: 34.96%; Activity [32]: Toxic

— ChEMBL document CHEMBL4673230, “Total Synthesis of Natural Lembehyne C and Investigation of Its Cytotoxic Properties” (J Nat Prod, 2020)
